Here are results for 13 molecules from ChEMBL document CHEMBL1201862, “PubChem BioAssay data set” (2004).

Test systems include 786-0; A549; CAKI-1; DMS-114; HCT-116; HOP-62; HT-29; Malme-3M; NCI-H23; NCI-H460; OVCAR-4; SF-295; SNB-78; TK-10; UACC-62; UO-31; SR; BT-549; DU-145; T47D.
Assay in all cases: NCI tumour cell line growth inhibition, 48 h

Structures are written as SMILES.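 In this assay, cells in 96-well plates receive the compound at five concentrations for 48 hours. Endpoints are linearly interpolated between the surrounding concentrations. Abbreviation: GI50, concentration required for 50% inhibition of growth.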 Calls of active or inactive are those of the source. Rule as the data show it: active = GI50 up to about 1.1 µM and inactive = higher.

Consider `COc1ccc(Cc2c(=O)[nH]nc3ccccc23)cc1`, for which the GI50 with 786-0 was > 100 µM (inactive); with A549, 43.6 µM (inactive); in the test with CAKI-1, > 100 µM (inactive); in the test with DMS-114, > 100 µM (inactive); with HCT-116, > 100 µM (inactive); in the test with HOP-62 it was > 100 µM (inactive). For the same molecule, the GI50 with HT-29 was > 100 µM (inactive); with Malme-3M it was > 100 µM (inactive); with NCI-H23, 61 µM (inactive); in the test on NCI-H460 it was > 100 µM (inactive); in the test on OVCAR-4, > 100 µM (inactive); in the test with SF-295, > 100 µM (inactive). Further, the GI50 in the test with SNB-78 was > 100 µM (inactive); in the test on TK-10 it was > 100 µM (inactive); with UACC-62, > 100 µM (inactive); with UO-31 it was 43.8 µM (inactive).
On to `CCCOC(=O)C1CCC(=O)N1C(=O)C(Cl)Cl` (stereo not given), for which the GI50 in the test with 786-0, with A549, in the test with CAKI-1, in the test with DMS-114, in the test with HCT-116 and in the test with HOP-62 was > 100 µM (inactive) in each case. Besides, the GI50 in the test with HT-29, in the test with Malme-3M, with NCI-H23, with NCI-H460, in the test with OVCAR-4 and in the test on SF-295 was > 100 µM (inactive) each time. Also, the GI50 in the test with SNB-78, in the test on TK-10, in the test on UACC-62 and in the test with UO-31 was > 100 µM (inactive) in each case.
Regarding `Cc1ccc(-c2cc(=O)c3cc(C)c(C)c(C(=O)O)c3o2)cc1[N+](=O)[O-]`, the GI50 in the test with 786-0, in the test on A549, in the test with CAKI-1, in the test on DMS-114, with HCT-116 and in the test on HT-29 was > 100 µM (inactive) in each case. Besides, the GI50 with Malme-3M, in the test on NCI-H23, in the test with NCI-H460, in the test on OVCAR-4, in the test on SF-295 and in the test on SNB-78 was > 100 µM (inactive) in each case. For the same molecule, the GI50 with TK-10, with UACC-62 and in the test with UO-31 was > 100 µM (inactive) each time.
For `NC(=O)NC12CC3CC(CC(F)(C3)C1)C2`, the GI50 with 786-0, with A549, with DMS-114, in the test with HCT-116, in the test on HOP-62 and in the test on HT-29 was > 100 µM (inactive) throughout. For the same molecule, the GI50 in the test with Malme-3M, in the test with NCI-H23, in the test on NCI-H460, in the test on SNB-78, in the test on TK-10 and with UACC-62 was > 100 µM (inactive) throughout. The GI50 in the test on UO-31 is > 100 µM (inactive).
Regarding `Cc1ccc(N2C(=O)CS/C2=C(\C#N)c2nc3ccccc3[nH]2)cc1`, the GI50 in the test on 786-0, with A549, in the test with CAKI-1, in the test on DMS-114, with HCT-116 and in the test on HOP-62 was > 100 µM (inactive) in each case. Besides, the GI50 with Malme-3M, in the test on NCI-H23, in the test on NCI-H460, with OVCAR-4, in the test with SR and in the test with TK-10 was > 100 µM (inactive) each time. Moreover, the results for the GI50 in the test with UACC-62 and in the test on UO-31 were 16.1 µM (inactive) and > 100 µM (inactive), respectively.
With `COc1cccc2c1N[S@](=O)S2`, the GI50 in the test on 786-0, with A549, in the test with CAKI-1, in the test on HCT-116, with HT-29 and with Malme-3M was > 100 µM (inactive) throughout. Further, the GI50 is > 100 µM (inactive) in the test on NCI-H23; 95.7 µM (inactive) in the test on SF-295; > 100 µM (inactive) in the test with SNB-78; 70.6 µM (inactive) in the test on SR; > 100 µM (inactive) in the test with TK-10; 38.6 µM (inactive) in the test with UACC-62. Also, the GI50 in the test on UO-31 was 42 µM (inactive).
Take `COC(=O)C(C(=O)C(=O)Nc1ccc([N+](=O)[O-])cc1[N+](=O)[O-])c1nc2ccc(Cl)cc2nc1O` (stereo not given): the GI50 in the test with 786-0 is > 100 µM (inactive); in the test with A549, > 100 µM (inactive); in the test on CAKI-1, > 100 µM (inactive); in the test on DMS-114 it was 72.4 µM (inactive); with HCT-116 it was > 100 µM (inactive); in the test with HOP-62, > 100 µM (inactive). For the same molecule, the GI50 with HT-29 is > 100 µM (inactive); in the test on Malme-3M, > 100 µM (inactive); with NCI-H23, 77.8 µM (inactive); in the test on NCI-H460, > 100 µM (inactive); in the test on OVCAR-4 it was > 100 µM (inactive); with SF-295, > 100 µM (inactive). Further, the GI50 in the test on SNB-78 was > 100 µM (inactive); in the test on TK-10, > 100 µM (inactive); with UACC-62, > 100 µM (inactive); in the test with UO-31, 41.1 µM (inactive).
`Cc1ccccc1SC(/C=C/NNC1=NN=C(c2ccccc2)C(c2ccccc2)N1)c1ccccc1` (stereo not given): the GI50 was 11.9 µM (inactive) in the test with 786-0; 14.3 µM (inactive) in the test on A549; 13.7 µM (inactive) in the test with CAKI-1; 22.9 µM (inactive) with DMS-114; 17.7 µM (inactive) in the test with HOP-62; 29.8 µM (inactive) with HT-29. In addition, the GI50 is 22.4 µM (inactive) in the test on Malme-3M; 17.5 µM (inactive) in the test on NCI-H23; 34.9 µM (inactive) in the test on NCI-H460; 2.99 µM (inactive) in the test with OVCAR-4; 18.8 µM (inactive) in the test on SF-295; 22 µM (inactive) in the test on SNB-78. Moreover, the GI50 is 17.8 µM (inactive) with TK-10, 29.4 µM (inactive) in the test on UACC-62 and 16.9 µM (inactive) in the test with UO-31.
Take `Cc1nc2ccc(N)cc2nc1O`: the GI50 in the test on 786-0, in the test on A549, with CAKI-1, in the test with HCT-116, with HOP-62 and in the test with Malme-3M was > 100 µM (inactive) each time. In addition, the GI50 in the test with NCI-H460, in the test on OVCAR-4, with SF-295, in the test on SNB-78, with TK-10 and in the test with UACC-62 was > 100 µM (inactive) each time. The GI50 in the test with UO-31 is > 100 µM (inactive).
With `[O-][S+]1c2ccccc2N=C(c2cccs2)CC1c1ccccc1O` (stereo not given), the GI50 in the test with 786-0 was > 100 µM (inactive); in the test on A549, > 100 µM (inactive); with CAKI-1 it was > 100 µM (inactive); in the test with DMS-114, 37.2 µM (inactive); in the test with HOP-62 it was 97.5 µM (inactive); in the test on HT-29, > 100 µM (inactive). Also, the GI50 was > 100 µM (inactive) in the test on Malme-3M; 67.9 µM (inactive) in the test on NCI-H23; > 100 µM (inactive) in the test on NCI-H460; > 100 µM (inactive) with OVCAR-4; 70.3 µM (inactive) with SF-295; > 100 µM (inactive) in the test on TK-10. For the same molecule, the figures for the GI50 with UACC-62 and in the test with UO-31 were 56.2 µM (inactive) and > 100 µM (inactive), respectively.
On to `CC(=O)OCC1(C)C(OC(C)=O)CCC2(C)C(CC(OC(C)=O)C3=CCOC3=O)C(O)(CO)CCC12` (stereo not given), for which the GI50 in the test with 786-0, with A549, in the test on CAKI-1, in the test on HCT-116, in the test on HOP-62 and with HT-29 was > 100 µM (inactive) throughout. Besides, the GI50 in the test on Malme-3M, with NCI-H23, with NCI-H460, in the test with OVCAR-4, in the test on SF-295 and with SNB-78 was > 100 µM (inactive) each time. Further, the GI50 in the test on TK-10, in the test with UACC-62 and in the test with UO-31 was > 100 µM (inactive) each time.
With `C=C(CC(NC(=O)c1ccc(C(CC)Cc2cnc3nc(N)nc(N)c3n2)cc1)C(=O)O)C(=O)O` (stereo not given), the GI50 with 786-0 is 0.00174 µM (active); in the test with A549, 0.00567 µM (active); in the test on BT-549, 0.0687 µM (active); with CAKI-1, 0.169 µM (active); in the test on HCT-116 it was 0.00286 µM (active); in the test with HOP-62, 0.03 µM (active). Further, the GI50 with HT-29 was 0.0356 µM (active); in the test with Malme-3M, 0.35 µM (active); with NCI-H23, 0.244 µM (active); in the test on NCI-H460, 0.00589 µM (active); with OVCAR-4, 0.246 µM (active); in the test on SF-295, 0.00113 µM (active). For the same molecule, the GI50 in the test on SNB-78 was 27.7 µM (inactive); in the test with SR, 0.00316 µM (active); in the test with TK-10, 0.0719 µM (active); with UACC-62, 0.163 µM (active); in the test on UO-31 it was 0.114 µM (active).
Take `Cc1cc(O)c2c3c(ccc2c1)C(=O)c1c(O)cccc1C3=O` [TETRANGULOL]: the GI50 in the test on 786-0 is 7.46 µM (inactive); in the test with A549, 5.14 µM (inactive); in the test on BT-549 it was 55.5 µM (inactive); in the test with CAKI-1, > 100 µM (inactive); in the test with DU-145 it was 4.56 µM (inactive); with HCT-116, 11.2 µM (inactive). In addition, the GI50 is 16.3 µM (inactive) in the test with HOP-62; 8.15 µM (inactive) with HT-29; 0.0157 µM (active) in the test with Malme-3M; 3.98 µM (inactive) in the test on NCI-H23; 0.653 µM (active) in the test with NCI-H460; 4.57 µM (inactive) in the test on OVCAR-4. For the same molecule, the GI50 with SF-295 is 17.4 µM (inactive); in the test with SR, 1.36 µM (inactive); with T47D it was 5.14 µM (inactive); with TK-10, 54.5 µM (inactive); in the test with UACC-62, 1.55 µM (inactive); with UO-31, > 100 µM (inactive).
